The values that follow come from patent US20190365720A1, “Novel formulations of amidine substituted beta-lactam compounds on the basis of modified cyclodextrins and acidifying agents, their preparation and use as antimicrobial pharmaceutical compositions” (AiCuris Anti-Infective Cures GmbH, priority 2016, published 2019).

Data set [1] is described as follows: Fraction bound to plasma protein in mice. In kind it is in vitro ADME. To be noted: mouse, read-out: Fraction bound to plasma protein (fp) (converted).
Data set [2] is described as follows: Physical / in-use stability of solutions at room temperature. The class given is physicochemical.
Data set [3] is described as follows: Solubility of compound (I) in selected solvent systems by UPLC. In kind it is physicochemical. The following applies: aqueous with cosolvent or surfactant or cyclodextrin, thermodynamic from solid, 25° C. How it is done: To determine the solubility of a compound (I) in selected solvent systems in accordance with the invention, UPLC was used, and physicochemical properties such as pH and physical appearance were monitored. The solubility of compound (I) in solution was determined at 25° C. separately in following solvent systems at three time points (at 2 hours, at 6 hours and at 24 hours) in duplicates. 1) Hydroxypropyl-β-cyclodextrin solution (30% w/v) 2) Hydroxypropyl-β-cyclodextrin (30% w/v) solution containing 2% CA 3) Solvent mixture of PEG400 (40%)+2% CA (60%) To the vial for each time point 3 mL of individual solvent were added followed by addition of the weighed amount of compound (I) (100 mg). This system was kept for stirring on a magnetic stirrer at 700 rpm. At each time point, the solution was filtered through a […] syringe filter and analysed for the content of compound (I) using UPLC after suitable dilutions.

Another data set deals with female rabbits. Put plainly: Local tolerance after single intravenous infusion into the marginal ear vein. The class given is in vivo, rabbit. As to the method: The aim of this example was to test the local tolerance of a compound (I) containing aqueous injectable solution in accordance with the invention in female rabbits following a single intravenous infusion for 30 or 60 minutes. Each animal received 15 mL of a formulation containing 5 mg compound (I) as API per mL into the marginal vein of the right ear. Two groups of 9 female animals, each, were employed with infusion durations of 30 or 60 minutes per dose. In addition, a placebo solution as vehicle control, was administered in the same volume and duration on the left ear of each animal. 24, 72 and 96 hours after administration respectively 3 animals per group were sacrificed and the injection sites were examined macro- and microscopically. The application formulations were freshly prepared on the administration day. The compound (I) and the placebo were dissolved in the vehicles to the appropriate concentrations: 15 mL of WFI were added to 1 compound (I) drug product vial and shaken well. The solution volume expanded to approximately 17 mL. The final concentration was approximately 29 mg/mL. Withdraw 17 mL from 100 mL of lactated Ringer's solution. Then add the reconstituted solution (approx. 17 mL from step 1). Mix well. The final concentration was approximately […]. Species: rabbit; Strain: New Zealand White Selection of species: the rabbit is a commonly used species for local tolerance studies. Number and sex of animals: 18 female animals Age (at start of administration): approx. 3 months Body weight (at start of administration): 2.31 to 2.73 kg Acclimatisation period: at least 20 acclimatisation days; 4 test days Routes of administration: single intravenous infusion into the marginal vein of the ear. Selection of routes of administration: according to clinical use via intravenous route. The compound (I) solutions were administered to the right ear, and the placebo solutions were administered to the left ear of each animal. Local reactions were inspected macroscopically 1 […] and 96 h after injection. The reactions were scored on the basis of DRAIZE, Appraisal of the Safety of Chemicals in Food, Drugs and Cosmetics, Association of Food and Drug Officials of the United States, Austin, Tex., 1959. The animals scheduled for the respective dissection day were sacrificed with pentobarbitol injection into an ear vein (not used for infusion). All animals were subjected to gross examination including the opening of the cranial, thoracic and abdominal cavities and the examination of the major organs. Particular attention was paid to the appropriate injection sites (test and control items). All abnormalities were recorded. Tissue abnormalities would have been preserved in 10% neutral buffered formalin. Histopathological examination was performed on treated infusion sites (compound (I) and placebo, 2 sites per animal) plus an untreated adjacent site from all animals. Tissue samples were fixed in 10% buffered formalin. Paraffin sections (3 to 5 μm) were prepared, stained with hematoxylin-eosin, and examined histologically.

Data set [4] can be described thus: pH-dependent solubility of compound (I). The class given is physicochemical. The following applies: 25 °C. As to the method: The solubility profile of the API of a compound of formula (I) was measured at two different pH values (see […]): FIG. 23: pH solubility profile in pure water at 25° C.
Data set [5] is described as follows: Calculated fraction of compound (I) bound to SBE-β-CD in blood plasma after i.v. administration. Set-up: species or system mice. The following applies: after i.v. administration at time zero. How it is done: On average, mice have 79 ml of blood per kg of body weight (see https://en.wikipedia.org/wiki/Blood_volume; Oct. 3, 2016). If the blood plasma is 55% of the total blood volume then mice have around 43 ml of plasma per kg of body weight. The dose was 25 mg/kg (0.037 mmoles/kg) of compound (I) and 156.5 mg/kg ([…]) of SBE-β-CD. After mixing with the blood plasma the initial plasma concentration should be 8.6.10^−4 M of compound (I) and 1.7.10^−3 M of SBE-β-CD.

In brackets after ≈: the same amount, converted by molar mass. Entries after “also recorded” stand apart in the source; their conditions may differ.

In the case of `CC1(C)[C@H](NC(=O)/C(=N\O[C@@H](COc2ccc(C(=N)N[C@@H]3CCCNC3)cc2)C(=O)O)c2csc(N)n2)C(=O)N1OS(=O)(=O)O` [compound (I)], the fraction unbound in data set [1] is 0.779. Moreover, the Stability after reconstitution in data set [2] is 6 h. The solubility came to 16200 µg/mL in data set [3] (30% HP-β-CD plus 2% CA); 2700 µg/mL (≈ 4.04 mM) in data set [3] (hydroxypropyl-β-cyclodextrin solution (30% w/v), 30% HP-β-CD as sole excipient); 1000 µg/mL (≈ 1.5 mM) in data set [4] (pure water (pH-adjusted, no cyclodextrin), pH 7.4, aqueous buffer); 10000 µg/mL (≈ 15 mM) in data set [4] (pure water, aqueous buffer, pH 4.0). The Body weight result in the data set on female rabbits (15 mL of 5 mg/mL i.v. infusion) is “No influence on the body weight”. Besides, the Clinical signs result in the data set on female rabbits (15 mL of 5 mg/mL i.v. infusion) is listed as “No clinical signs of toxicity”. In addition, in the data set on female rabbits (15 mL of 5 mg/mL i.v. infusion, 30 or 60 min), the Necropsy findings result is on record as “did not reveal any changes”. Besides, the “Macroscopic changes at infusion sites” value with female rabbits (15 mL of 5 mg/mL i.v. infusion, 30 or 60 min, inspected 1 h to 96 h) is reported as “did not reveal any changes”. In addition, the “Microscopic (histopathological) changes at infusion sites” value in the data set with female rabbits (15 mL of 5 mg/mL i.v. infusion, 30 or 60 min, versus vehicle control sites) is listed as “did not reveal any compound (I)-related changes; also recorded: did not cause any compound (I)-related histopathological changes”. The “Compatibility following intravenous infusion” value in the data set with female rabbits (overall conclusion) is “very good compatibility”. Moreover, the “Fraction of compound (I) free or bound to plasma proteins” value in data set [5] is “about 80%”. In addition, the “Fraction of compound (I) bound to SBE-β-CD” value in data set [5] (25 mg/kg with 156.5 mg/kg SBE-β-CD, plasma pH 7.4) was “about 22%”.
